Data published in patent US5707977A, “Watersoluble azole antifungals” (Janssen Pharmaceutica, N.V., priority 1996, dated 1998).
In brackets after ≈: the same amount, converted by molar mass. Counter-ions that a name gives are not always drawn. Each block holds one compound with its values, some of them ahead of it.

How the values were obtained:
[1] = Solubility in water and in 0.1N HCl (1 hour shaking at room temperature, UV-spectroscopy); format: physicochemical
Experimental: An excess of compound was added to 5 ml of solvent (the type of solvent is specified in the table). The mixture was shaken during 1 hour at room temperature. The precipitate was filtered off. The concentration of the compound was measured via UV-spectroscopy and is shown in the column "Solubility".

Candida albicans [2] = test: Mouse disseminated Candida model; format: in vivo; details: IV route; treatment repeated daily for 9 days; mice
Experimental: Mice in groups of 10 were infected intravenously with 8×10^5 CFU of Candida albicans. Treatment was begun on the day of infection and repeated daily for 9 days. Candida albicans CFU/g kidney were measured for all mice that died spontaneously or were killed on day 10.
The table indicates the lowest concentrations of the shown compounds that achieved a reduction in mean Candida counts of 1 log (i.e. a 10-fold reduction) or more, either in the triple mycosis model or the disseminated Candida infection; also the lowest concentrations that reduced mean skin scores below 1.0 in the cutaneous dermatophytosis component of this model (NT=nor tested, IV=intravenous).

Candida albicans [3] = test: Mouse triple mycosis model: vaginal candidosis; format: in vivo; set-up: unit not given here; details: treatment for 5 days, mice
Experimental: (§1) The test compounds were evaluated for their activity in a mouse model of fungal infection in which three mycoses--vaginal candidosis, cutaneous trichophytosis and disseminated aspergillosis--were established simultaneously. The mice, in groups of 10, were pretreated with subcutaneous injections of oestradiol valerate (500 μg) then inoculated on day 0 with the following: 100 000 colony forming units (CFU)/g of Aspergillus fumigatus B 19119 intravenously, a suspension containing 10^8 Candida albicans cells intravaginally and a aqueous suspension of Trichophyton quinckeanum on lightly scarified dorsal skin. Treatment with the test compounds (orally or intravenously) was begun on the day of infection and continued for 5 days.

Trichophyton quinckeanum = test: Mouse triple mycosis model: cutaneous dermatophytosis (trichophytosis); format: in vivo; set-up: unit not given here; details: treatment for 5 days, mice
Experimental: as §1

[4] = water, solvent: water, measured pH 6.65 to 7.01
[5] = 0.1n hcl, solvent: 0.1N HCl, measured pH 1.25 to 1.75

Structure (SMILES): CC(C)(C)C(Cn1ncn(-c2ccc(N3CCN(c4ccc(OC[C@H]5CO[C@](Cn6cncn6)(c6ccc(F)cc6F)O5)cc4)CC3)cc2)c1=O)OP(=O)(O)Oc1ccccc1 (mixture of isomers) [Compound 2, (±)-cis-1-[[4-[4-[4-[4-[[2-(2,4-difluorophenyl)-2-(1H-1,2,4-triazol-1-ylmethyl)-1,3-dioxolan-4-yl]methoxy]phenyl]-1-piperazinyl]phenyl]-4,5-dihydro-5-oxo-1H-1,2,4-triazol-1-yl]methyl]-2,2-dimethylpropyl phenyl sodium phosphate]
solubility at 1 h ([1]; solvent: water, measured pH 6.65 to 7.01): > 6000 µg/mL

Structure (SMILES): CC(C)(C)C(Cn1ncn(-c2ccc(N3CCN(c4ccc(OC[C@H]5CO[C@](Cn6cncn6)(c6ccc(F)cc6F)O5)cc4)CC3)cc2)c1=O)OP(=O)(O)O (mixture of isomers) [Compound 3, (±)-ammonium cis-1-[[4-[4-[4-[4-[[2-(2,4-difluorophenyl)-2-(1H-1,2,4-triazol-1-ylmethyl)-1,3-dioxolan-4-yl]methoxy]phenyl]-1-piperazinyl]phenyl]-4,5-dihydro-5-oxo-1H-1,2,4-triazol-1-yl]methyl]-2,2-dimethylpropyl phosphate]
solubility at 1 h [1, 4]: 31900 µg/mL | lowest concentration, Kidney Candida CFU reduced by 1 log or more (Candida albicans [2]): 10 | lowest concentration, Vaginal Candida CFU reduced by 1 log or more (Candida albicans [3]; IV route): 2.5 | lowest concentration, Vaginal Candida CFU reduced by 1 log or more (Candida albicans [3]; oral route): 2.5 | lowest concentration, Dermatophyte skin score reduced to ≤1 (Trichophyton quinckeanum; IV route): 2.5 | lowest concentration, Dermatophyte skin score reduced to ≤1 (Trichophyton quinckeanum; oral route): 2.5

Structure (SMILES): CC(C)(C)C(Cn1ncn(-c2ccc(N3CCN(c4ccc(OC[C@H]5CO[C@](Cn6cncn6)(c6ccc(Cl)cc6)O5)cc4)CC3)cc2)c1=O)OP(=O)(O)O (mixture of isomers) [Compound 7, (±)-ammonium cis-1-[[4-[4-[4-[4-[[2-(4-chlorophenyl)-2-(1H-1,2,4-triazol-1-yl-methyl)-1,3-dioxolan-4-yl]methoxy]phenyl]-1-piperazinyl]phenyl]-4,5-dihydro-5-oxo-1H-1,2,4-triazol-1-yl]methyl]-2,2-dimethylpropyl phosphate(ester) monohydrate]
solubility at 1 h [1, 4]: 350 µg/mL

Structure (SMILES): CC(C)(C)C(Cn1ncn(-c2ccc(N3CCN(c4ccc(OC[C@H]5CO[C@](Cn6cncn6)(c6ccc(F)cc6)O5)cc4)CC3)cc2)c1=O)OP(=O)(O)O (mixture of isomers) [Compound 9, (±)-ammonium cis-1-[[4-[4-[4-[4-[[2-(4-fluorophenyl)-2-(1H-1,2,4-triazol-1-ylmethyl)-1,3-dioxolan-4-yl]methoxy]phenyl]-1-piperazinyl]phenyl]-4,5-dihydro-5-oxo-1H-1,2,4-triazol-1-yl]methyl]-2,2-dimethylpropyl phosphate]
solubility at 1 h [1, 4]: 2650 µg/mL

Structure (SMILES): CC(C)(C)C(Cn1ncn(-c2ccc(N3CCN(c4ccc(OC[C@H]5CO[C@](Cn6cncn6)(c6ccc(F)cc6F)O5)cc4)CC3)cc2)c1=O)OP(=O)(O)O (mixture of isomers) [Compound 17, (±)-cis-4-[4-[4-[4-[[2-(2,4-difluorophenyl)-2-(1H-1,2,4-triazol-1-ylmethyl)-1,3-dioxolan-4-yl]methoxy]phenyl]-1-piperazinyl]phenyl]-2-[3,3-dimethyl-2-(phosphonooxy)butyl]-2,4-dihydro-3H-1,2,4-triazol-3-one hemihydrate]
lowest concentration, Vaginal Candida CFU reduced by 1 log or more (Candida albicans [3]; IV route, hemihydrate): < 2.5 | lowest concentration, Dermatophyte skin score reduced to ≤1 (Trichophyton quinckeanum; IV route, hemihydrate): < 2.5

Structure (SMILES): CN1CCN(CC(=O)OC(Cn2ncn(-c3ccc(N4CCN(c5ccc(OC[C@H]6CO[C@](Cn7cncn7)(c7ccc(F)cc7F)O6)cc5)CC4)cc3)c2=O)C(C)(C)C)CC1 (stereo partly drawn) [Compound 29]
solubility at 1 h [1, 5]: 4890 µg/mL (≈ 5.71 mM)

Further lines, with some results ahead:

solubility at 1 h [1, 5]: > 6000 µg/mL
Structure (SMILES): CC(C)(C)C(Cn1ncn(-c2ccc(N3CCN(c4ccc(OC[C@H]5CO[C@](Cn6cncn6)(c6ccc(F)cc6F)O5)cc4)CC3)cc2)c1=O)OC(=O)CCN (mixture of isomers) [Compound 36, (±)-cis-1-[[4-[4-[4-[4-[[2-(2,4-difluorophenyl)-2-(1H-1,2,4-triazol-1-ylmethyl)-1,3-dioxolan-4-yl]methoxy]phenyl]-1-piperazinyl]phenyl]-4,5-dihydro-5-oxo-1H-1,2,4-triazol-1-yl]methyl]-2,2-dimethylpropyl β-alanine monohydrochloride]

solubility at 1 h [1, 5]: > 6000 µg/mL
Structure (SMILES): CC(C)(C)C(Cn1ncn(-c2ccc(N3CCN(c4ccc(OC[C@H]5CO[C@](Cn6cncn6)(c6ccc(F)cc6F)O5)cc4)CC3)cc2)c1=O)OC(=O)CCN1CCCC1 (mixture of isomers) [Compound 37, (±)-cis-1-[[4-[4-[4-[4-[[2-(2,4-difluorophenyl)-2-(1H-1,2,4-triazol-1-ylmethyl)-1,3-dioxolan-4-yl]methoxy]phenyl]-1-piperazinyl]phenyl]-4,5-dihydro-5-oxo-1H-1,2,4-triazol-1-yl]methyl]-2,2-dimethylpropyl 1-pyrrolidinepropanoate . monohydrochloride . monohydrate]

Solubility ([1]; solvent: 0.1N HCl, measured pH 1.25 to 1.75, monohydrochloride, 60 min): > 6000 µg/mL
Structure (SMILES): CN1CCN(CC(=O)OC(Cn2ncn(-c3ccc(N4CCN(c5ccc(OC[C@H]6CO[C@](Cn7cncn7)(c7ccc(F)cc7F)O6)cc5)CC4)cc3)c2=O)C(C)(C)C)CC1 (mixture of isomers) [Compound 34, (±)-cis-1-[[4-[4-[4-[4-[[2-(2,4-difluorophenyl)-2-(1H-1,2,4-triazol-1-ylmethyl)-1,3-dioxolan-4-yl]methoxy]phenyl]-1-piperazinyl]phenyl]-4,5-dihydro-5-oxo-1H-1,2,4-triazol-1-yl]methyl]-2,2-dimethylpropyl 4-methyl-1-piperazineacetate monohydrochloride]
lowest concentration, Kidney Candida CFU reduced by 1 log or more (Candida albicans [2]): 5 | lowest concentration, Vaginal Candida CFU reduced by 1 log or more (Candida albicans [3]; IV route): 2.5 | lowest concentration, Vaginal Candida CFU reduced by 1 log or more (Candida albicans [3]; oral route): 2.5 | lowest concentration, Dermatophyte skin score reduced to ≤1 (Trichophyton quinckeanum; IV route): 2.5 | lowest concentration, Dermatophyte skin score reduced to ≤1 (Trichophyton quinckeanum; oral route): 2.5

solubility at 1 h [1, 5]: 5220 µg/mL (≈ 6.29 mM)
Structure (SMILES): CCN(CC)CC(=O)OC(Cn1ncn(-c2ccc(N3CCN(c4ccc(OC[C@H]5CO[C@](Cn6cncn6)(c6ccc(F)cc6F)O5)cc4)CC3)cc2)c1=O)C(C)(C)C (stereo partly drawn) [Compound 30]

solubility at 1 h [1, 5]: > 6000 µg/mL
Structure (SMILES): CC(C)(C)C(Cn1ncn(-c2ccc(N3CCN(c4ccc(OC[C@H]5CO[C@](Cn6cncn6)(c6ccc(F)cc6F)O5)cc4)CC3)cc2)c1=O)OC(=O)CN1CCN(CCO)CC1 (stereo partly drawn) [Compound 31]

solubility at 1 h [1, 5]: > 6000 µg/mL
Structure (SMILES): CN1CCN(CCC(=O)OC(Cn2ncn(-c3ccc(N4CCN(c5ccc(OC[C@H]6CO[C@](Cn7cncn7)(c7ccc(F)cc7F)O6)cc5)CC4)cc3)c2=O)C(C)(C)C)CC1 (stereo partly drawn) [Compound 33]

solubility at 1 h [1, 5]: > 6000 µg/mL
Structure (SMILES): CC(C)(C)C(Cn1ncn(-c2ccc(N3CCN(c4ccc(OC[C@H]5CO[C@](Cn6cncn6)(c6ccc(F)cc6F)O5)cc4)CC3)cc2)c1=O)OC(=O)CN (stereo partly drawn) [Compound 38]
